Results from US12350273B2, “Treatment of SMA” (Hoffmann-La Roche Inc., priority 2017, dated 2025).
Where two headings read alike, the source gives them in different places.

What was measured:
[1] = tested on: SMN protein; test: SMN protein (HTRF) in brain and quadriceps muscle of C/C-allele mice; format: in vivo
Protocol: FIG. 1A-FIG. 1D: Increase in SMN Protein Expression In Vivo • HET=heterogygous. • C/C-allele mice and SMNΔ7 mice were treated with RO7034067. One hour after the last dose, brains and quadriceps muscles were collected and levels of SMN protein were assessed by HTRF. FIG. 1A. SMN protein in brains of C/C-allele mice. FIG. 1B. SMN protein in brains of SMNΔ7 mice. FIG. 1C. SMN protein in quadriceps muscle of C/C-allele mice. FIG. 1D. SMN protein in quadriceps muscle of SMNΔ7 mice. Data represent means±SEM of 5-6 animals per group and are expressed as fold change vs. vehicle-treated controls. *=p<0.05, **=p<0.01, ***=p<0.001 vs. untreated controls.
Adult C/C-allele mice were treated for 10 days with vehicle or RO7034067 (1, 3 or 10 mg/kg per os [PO], daily), and PND3 SMNΔ7 mice were treated for 7 days with vehicle or RO7034067 (0.1, 0.3, 1 or 3 mg/kg intraperitoneal [IP], daily). […] In SMNΔ7 mice, the SMN protein increase was only partial in both brain and muscle, reaching approximately 43% (brain) and 55% (muscle) of protein levels in heterozygous mice.

[2] = 39-week monkey toxicity study: toxicokinetics in plasma; format: in vivo, cynomolgus monkeys (Macaca fascicularis); conditions: for AUC(0-t) / Cmax: cynomolgus monkey, plasma
Protocol: Blood samples for toxicokinetics (nominally 0.5 mL) were taken from all test article-treated animals on Days 1, 12 (Week 2), 26 (Group 4 only), 57 (Week 9), 92 (Week 14), 180 (Week 26) and 267 (Week 39) of the dosing phase at the following time points: • 0 (predose), 1, 3, 7 and 24 hours postdose
An additional sample was taken at 72 hours postdose on Day 12 (i.e. Day 15) from all Group 4 animals.
Samples were taken from the femoral vein/artery. Each blood sample was mixed gently by hand then placed on crushed wet ice until centrifugation at 2300 g for 10 minutes at approximately 4° C. The resultant plasma was separated, split into two uniquely labelled clear polypropylene tubes and frozen at <−50° C. (nominally −80° C.). One sample was transported frozen on dry ice to the Principal Investigator for analysis, and the other was retained at Covance.

[3] = tested on: MADD gene transcripts; test: 2-week dose-range finding toxicity study in rat: MADD splicing in spleen, duodenum, testis; format: in vivo; conditions: rats treated 2 weeks, highest dose of 7.5 mg/kg/day
Protocol: Gene expression analysis was performed in spleen, duodenum, and testis in rats treated for 2 weeks (MADD gene). […] The changes in splicing of MADD transcripts are consistent with the observations of apoptosis in the GI tract observed at the same dose since MADD gene products have been reported to interfere with the apoptosis processes.

[4] = Aqueous solubility; format: physicochemical
[5] = biological target: T1, FMO3 (Homo sapiens, UniProt P31513); test: Elimination pathway; format: in vitro ADME
T1 sequence (P31513 1-532): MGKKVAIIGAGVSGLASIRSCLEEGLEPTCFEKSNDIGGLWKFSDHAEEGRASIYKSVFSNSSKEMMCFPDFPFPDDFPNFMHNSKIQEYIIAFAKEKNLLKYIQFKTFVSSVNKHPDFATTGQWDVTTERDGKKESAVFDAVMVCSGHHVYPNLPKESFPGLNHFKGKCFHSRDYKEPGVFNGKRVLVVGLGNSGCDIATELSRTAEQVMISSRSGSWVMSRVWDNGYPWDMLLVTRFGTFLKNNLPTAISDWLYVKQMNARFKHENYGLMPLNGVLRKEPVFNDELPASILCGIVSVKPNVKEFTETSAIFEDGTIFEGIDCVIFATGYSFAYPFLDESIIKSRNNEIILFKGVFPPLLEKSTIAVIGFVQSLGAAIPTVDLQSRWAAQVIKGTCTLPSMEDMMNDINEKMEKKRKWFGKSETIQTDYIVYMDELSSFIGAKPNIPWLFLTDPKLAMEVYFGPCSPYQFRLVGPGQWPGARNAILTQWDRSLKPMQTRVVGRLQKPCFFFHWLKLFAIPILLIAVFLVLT

[6] = tested on: human RPE cells; test: Lysosomal function in human RPE cells in vitro; format: cell-based
[7] = 39-week monkey toxicity study: retina effects (ERG, sdOCT, histopathology), NOAEL; conditions: cynomolgus monkey; for AUC(0-t): plasma
[8] = tested on: retina; test: as above; conditions: for ERG B-wave amplitude, left eye / ERG B-wave amplitude, right eye: Animal 0114 (female, 7.5/5 mg/kg/day)

Q: What does the source list for Cc1cn2nc(-c3cc(=O)n4cc(N5CCNC6(CC6)C5)ccc4n3)cc(C)c2n1 [RO7034067, 7-(4,7-diazaspiro[2.5]octan-7-yl)-2-(2,8-dimethylimidazo[1,2-b]pyridazin-6-yl)pyrido[1,2-a]pyrimidin-4-one]?
A: SMN levels in muscle compared with heterozygous mice ([1]; C/C-allele mice, 10 mg/kg): no different from those in heterozygous mice; SMN protein levels in brain and muscle tissue, maximum effect ([1]; adult C/C-allele mice, 10 mg/kg PO daily, 10 days): 2-3 fold; gender differences for AUC(0-24h) or Cmax ([2]; any dose level, 39-week dosing phase): no relevant gender differences; dose dependence of AUC(0-24h) ([2]; between 1.5 and 5 mg/kg/day on each evaluation day): roughly dose-proportional increase; AUC(0-t) ([2]; female, Day 12, 7.5 mg/kg/day oral, read-out: AUC(0-24h), female (mean)): 10200 ng·h/mL; Cmax ([2]; female, Day 12, 7.5 mg/kg/day oral, read-out: Cmax, female (mean)): 1070 ng/mL; Cmax ([2]; female, Day 267 (Week 39), 1.5 mg/kg/day oral, read-out: Cmax, female (mean)): 396 ng/mL; AUC(0-t) ([2]; female, Day 267, 1.5 mg/kg/day oral, read-out: AUC(0-24h), female (mean)): 2060 ng·h/mL; AUC(0-t) ([2]; female, Day 267, 3 mg/kg/day oral, read-out: AUC(0-24h), female (mean)): 4850 ng·h/mL; Cmax ([2]; female, Day 267, 3 mg/kg/day oral, read-out: Cmax, female (mean)): 973 ng/mL; AUC(0-t) ([2]; female, Day 267, 5 mg/kg/day oral (Group 4, 7.5/5), read-out: AUC(0-24h), female (mean)): 6470 ng·h/mL; Cmax ([2]; female, Day 267, 5 mg/kg/day oral (Group 4, 7.5/5), read-out: Cmax, female (mean)): 1160 ng/mL; AUC(0-t) ([2]; male, Day 12, 7.5 mg/kg/day oral, read-out: AUC(0-24h), male (mean)): 11200 ng·h/mL; Cmax ([2]; male, Day 12, 7.5 mg/kg/day oral, read-out: Cmax, male (mean)): 1020 ng/mL; Cmax ([2]; male, Day 267 (Week 39), 1.5 mg/kg/day oral, read-out: Cmax, male (mean)): 414 ng/mL; AUC(0-t) ([2]; male, Day 267, 1.5 mg/kg/day oral, read-out: AUC(0-24h), male (mean)): 1870 ng·h/mL; AUC(0-t) ([2]; male, Day 267, 3 mg/kg/day oral, read-out: AUC(0-24h), male (mean)): 4880 ng·h/mL; Cmax ([2]; male, Day 267, 3 mg/kg/day oral, read-out: Cmax, male (mean)): 1000 ng/mL; AUC(0-t) ([2]; male, Day 267, 5 mg/kg/day oral (Group 4, 7.5/5), read-out: AUC(0-24h), male (mean)): 5880 ng·h/mL; Cmax ([2]; male, Day 267, 5 mg/kg/day oral (Group 4, 7.5/5), read-out: Cmax, male (mean)): 701 ng/mL; gene expression analysis of MADD gene transcripts [3]: splicing response; aqueous solubility [4]: high aqueous solubility; elimination pathway [5]: FMO3 participates on the elimination path way; effect on human RPE cells [6]: Impairment of lysosomal function/autophagosomal accumulation; NOAEL at 39 weeks ([7]; both, in vivo, po): 1.5 mg/kg/day; AUC(0-t) ([7]; oral): 4260 ng·h/mL; AUC(0-t) ([7]; female, po, 3 mg/kg/day): 4850 ng·h/mL; AUC(0-t) ([7]; female, po, 5 mg/kg/day): 6470 ng·h/mL; AUC(0-t) ([7]; male, po, 3 mg/kg/day): 4880 ng·h/mL; AUC(0-t) ([7]; male, po, 5 mg/kg/day): 5880 ng·h/mL; animals noted with ERG deficits ([8]; 1.5 mg/kg/day): No animals; retinal appearance by sdOCT ([8]; 1.5 mg/kg/day): retained a normal retinal appearance; AUC0-24h exposure free of retina effects (NOEL/NOAEL of the retina finding), females ([8]; 1.5 mg/kg/day, 39 weeks, females): 2060 ng·h/mL; AUC0-24h exposure free of retina effects (NOEL/NOAEL of the retina finding), males ([8]; 1.5 mg/kg/day, 39 weeks, males): 1870 ng·h/mL; animals with adverse histopathologic degeneration in mid to peripheral retina ([8]; 3 mg/kg/day): one female; animals with adverse histopathologic degeneration in mid to peripheral retina ([8]; 7.5/5 mg/kg/day): two animals/sex; ERG finding in several animals ([8]; 7.5/5 mg/kg/day, Week 20 of the dosing phase): markedly depressed scotopic and photopic ERGs; primary finding of 39-week administration ([8]; 7.5/5 mg/kg/day, correlated with nonadverse epidermal hyperplasia): clinical signs in the skin; reversibility of retinal degeneration (histopathology) ([8]; 22-week recovery period): not reversible during the recovery period; recovery of MMD and depressed ERG ([8]; 22-week recovery phase): almost fully recovered; ERG B-wave amplitude, left eye ([8]; recovery Week 22): 52.7 mcV; ERG B-wave amplitude, right eye ([8]; recovery Week 22): 43.4 mcV; ERG B-wave amplitude, left eye ([8]; recovery week 8): 33.5 mcV; ERG B-wave amplitude, right eye ([8]; recovery week 8): 34.1 mcV; lowest AUC0-24h exposure at the mid-dose with retina findings ([8]; animal No. 11): 4540 ng·h/mL; lowest AUC0-24h exposure at the mid-dose with retina findings ([8]; animal No. 109): 4560 ng·h/mL; lowest AUC0-24h exposure at the mid-dose with retina findings ([8]; animal No. 111): 4560 ng·h/mL; animals with rod ERGs below the criteria ([8]; females, 1 mg/kg/day, Week 34): Two; animals with depressed rod responses (ERG grading) ([8]; females, 3 mg/kg/day, Week 22): all three; animals with depressed rod responses (ERG grading) ([8]; females, 3 mg/kg/day, Week 27): none; animals with depressed rod responses (ERG grading) ([8]; females, 3 mg/kg/day, Week 35): 1 of 3; animals with depressed rod responses (ERG grading) ([8]; females, 7.5/5 mg/kg/day, Week 20): 4 of 5; animals with depressed rod responses (ERG grading) ([8]; females, 7.5/5 mg/kg/day, Week 26): 2 of 5; animals with depressed rod responses (ERG grading) ([8]; females, 7.5/5 mg/kg/day, Week 34): 4 of 5; individual AUC0-24h exposure free of effects on the retina ([8]; individual animals, end of study): up to 2300 ng·h/mL; ERG finding ([8]; intermediate and low dose groups (3.0 and 1.5 mg/kg/day), dosing phase): generally remained within expected limits; animals with rod response below the expected range ([8]; males, 1 mg/kg/day): No males; animals with depressed rod responses (ERG grading) ([8]; males, 3 mg/kg/day, Week 22): 1 of 3; animals with depressed rod responses (ERG grading) ([8]; males, 3 mg/kg/day, Week 26 or 35): none; sdOCT finding ([8]; males, 3 mg/kg/day, Weeks 22, 27 and 35): minimal/mild retinal disorganization in the periphery; animals with depressed rod responses (ERG grading) ([8]; males, 7.5/5 mg/kg/day, Week 20): Four of five; animals with depressed rod responses (ERG grading) ([8]; males, 7.5/5 mg/kg/day, Week 26): 2 of 5; animals with depressed rod responses (ERG grading) ([8]; males, 7.5/5 mg/kg/day, Week 34): 5 of 5
